Laboratory results published in patent US20230235283A1, “CULTURE MEDIUM FOR ESOPHAGEAL SQUAMOUS CELL CARCINOMA EPITHELIAL CELLS, CULTURE METHOD, AND APPLICATION THEREOF” (PRECEDO PHARMACEUTICALS CO., LTD, priority 2020, published 2023).

Columns and labels:
Format in all cases: cell-based, human
[1] = tested on: primary ESCC tumor cells (No. 0F0061); assay: Effects of removing single factor or combination of factors from FEM on continuous expansion of primary ESCC cells; conditions: continuous culture, third passage; FIG. 12 and FIG. 13
Protocol: The culture medium for primary ESCC epithelial cell FEM was prepared in the same method of Example 2. As a control, a basic medium (hereinafter also referred to as “BM”) was prepared using the same method of Example 2. In addition, six other different culture mediums were prepared according to Table 9.
ESCC tissue-originated primary ESCC tumor cells (No. 0F0061) were obtained by using the same method as in Example 1. Then, the primary ESCC tumor cells were inoculated in a Matrigel® (manufactured by BD Biosciences)-coated 24-well plate at a density of 4×10^4 cells/cm^2. 1 mL of the culture medium for primary ESCC epithelial cells (FEM) of the invention was used, which was then placed in a 37° C., 5% CO2 incubator (purchased from Thermo Fisher) for culture.
When the cells in the culture plate grew to cover about 80% of the bottom area, the medium supernatant in the 24-well plate was discarded and 400 μL 0.05% trypsin (purchased from Gibco) was added for cell digestion; the cells were incubated at 37° C. for 10 minutes until the cells were completely digested as observed under the microscope (EVOS M500, Invitrogen); then the digestion was terminated by using 800 μL of DMEM/F12 culture solution containing 5% (v/v) fetal bovine serum, 100 U/mL penicillin, and 100 μg/mL penicillin; the resultant was collected into a 15 mL centrifuge tube and centrifuged at 1500 rpm for 4 minutes, and then the supernatant was discarded. The centrifuged cell sediments were resuspended in the culture medium of the invention and were counted with a flow imaging counter (JIMBIO FIL, Jiangsu Jimbio Technology Co., Ltd.) to obtain the total number of cells. The cells were incubated into another 24-well culture plate coated with extracellular matrix gel at a density of 2×10^4 cells/cm^2 for further culture. The cells were inoculated into the 24-well culture plate coated with extracellular matrix gel at the same density using other seven different mediums for culture.
When the passaged cells grew in the culture plate to cover about 80% of the bottom area of the plate again, the cultured cells were digested, collected and counted according to the above operating method. The cells were inoculated at a density of 2×10^4 cells/cm^2 again and cultured continuously using the respective culture mediums of different compositions.
The following is the formula for calculating the cell population doubling number of primary ESCC epithelial cells under different culture conditions:
Population Doubling (PD)=3.32*log10 (total number of digested cells/the number of cells at initial inoculation), see Chapman et al., Stem Cell Research & Therapy 2014, 5: 60. […]

[2] = tested on: ESCC tumor cells (No. 0F0064); assay: Effects of different factors added to basic medium BM on proliferation of primary ESCC cells (cell count); conditions: factor added to BM at concentrations of Table 3; 12 days of culture; FIGS. 1A-1E
Protocol: (§1) Extracellular matrix gel (Matrigel®) (manufactured by BD Biosciences) was diluted at 1:100 in serum-free DMEM/F12 medium to prepare an extracellular matrix dilution, which was added to a 48-well culture plate with 500 μl/well to completely cover the bottom of the wells of the culture plate. The resultant was let stand for 1 hour in a 37° C. incubator. After 1 hour, the extracellular matrix dilution was removed to provide a Matrigel-coated plate.
Preparation of basic medium (abbreviated as BM): BM was prepared by adding 0.2 vol. % of Primocin (purchased from Invivogen, with a concentration of 50 mg/mL) to the commercial DMEM/F-12 medium to provide a final concentration of 100 μg/mL.
Next, different kinds and concentrations of additive factors (Table 3) were added to the basic medium (BM), so as to prepare culture mediums for ESCC epithelial cells containing different additive components.
The culture mediums with different components were added at a volume of 500 μl/well to 48-well plates which were coated with extracellular matrix gel (Matrigel). ESCC tumor cells (No. 0F0064) isolated from ESCC tissue according to the same method described in Example 1 were inoculated in a Matrigel-coated 48-well culture plate at a cell density of 2×10^4 cells/cm^2. After surface disinfection, the plate was placed in a 37° C., 5% CO2 incubator (purchased from Thermo Fisher), such that equal numbers of freshly isolated ESCC tumor cells (No. 0F0064) were cultured under different medium formulations. The culture mediums were renewed every 4 days after the start of the culture. After 12 days of culture, cell counts were performed. As an experiment control, the basis medium (BM) without any additive was used. The ordinate in each figure represents the ratio of the number of cells obtained after culture in different mediums to the number of cells obtained after culture in basic medium BM. As shown in the figures, the addition of different concentrations of different factors as shown in Table 3 to BM has different effects on cell proliferation.

[3] = tested on: ESCC tumor cells (Sample No. 0F0065); assay: Effects of different concentrations of the additive factors in FEM on proliferation of primary ESCC cells; conditions: factor added back to FEM lacking it; first passage; FIGS. 3A-3H; preferably
Protocol: as §1, with “plate with 200 μl/well to” for “plate with 500 μl/well to”, “Matrigel-coated plate. […]” for “Matrigel-coated plate.”
ESCC epithelial cells originated from cancer tissue were isolated and obtained from the cancer tissue of an ESCC patient (Sample No. 0F0065) using the same method as in Example 1. Next, ESCC tumor cells originated from cancer tissue were counted with a flow imaging counter (JIMBIO FIL, Jiangsu Jimbio Technology Co., Ltd.) to obtain the total number of cells. […] The centrifuged cell sediments were resuspended in the basic medium BM and were counted with a flow imaging counter (JIMBIO FIL, Jiangsu Jimbio Technology Co., Ltd.) to obtain the total number of cells. […]

| Molecule | proliferation effect of cells after removal of the component from FEM [1] | effect on cell proliferation (ratio of number of cells to that in basic medium BM) [2] | amount in the culture medium, preferable (proliferation ratio to control well) [3] [ng/mL] |
| --- | --- | --- | --- |
| CN1C(=O)C(c2c(F)cccc2F)N(C)c2nc(Nc3ccc(S(N)(=O)=O)cc3)ncc21 (stereo not shown) [Compound 1, 4-((7-(2,6-difluorophenyl)-5,8-dimethyl-6-oxo-5,6,7,8-tetrahydropteridin-2-yl)amino)benzsulfamide] | significantly attenuated | promoting effects on cell proliferation |  |
| Cc1cccc(-c2nn(C(=S)Nc3ccccc3)cc2-c2ccnc3ccccc23)n1 [Compound A83-01] | significantly attenuated |  |  |
| C[C@@H](N)[C@H]1CC[C@H](C(=O)Nc2ccncc2)CC1 [Compound Y27632, reference compound] | significantly attenuated | promoting effects on cell proliferation |  |
| Oc1ccc(-c2nc(-c3ccncc3)c(-c3ccc(F)cc3)[nH]2)cc1 [SB202190] | significantly attenuated |  |  |
| epidermal growth factor: growth factor from Sino Biological (NSDSECPLSHDGYCLHDGVCMYIEALDKYACNCVVGYIGERCQYRDLKWWELR; Epidermal growth factor; UniProt P01133 971-1023, looked up) |  | promoting effects on cell proliferation |  |
| hepatocyte growth factor: growth factor from Sino Biological |  | promoting effects on cell proliferation | 2.5 to 20 |
| insulin-like growth factor 1: growth factor from Sino Biological |  | promoting effects on cell proliferation |  |
